Data published in patent US4020111A, “Propynyloxy alkyl arene insecticides” (priority 1975, dated 1977).

Legend:
houseflies = experiment: percent kill with Diazinon, Table XXVII (strain not given); format: in vivo, housefly; settings: Diazinon 5 + synergist 10 μg/fly, 1440 min
mice = experiment: acute toxicity of Dimetilan alone and of synergist alone (intraperitoneal); format: in vivo, Swiss albino white male mice; settings: synergist alone 1000 mg/kg ip, 72 hours, of eight mice
[1] = tested on: German male cockroaches (Blatella Germanicus); experiment: topical application to thorax, 24 hour mortality of German male cockroaches; format: in vivo, German cockroach (Blatella Germanicus)
Procedure: The synergistic effect with mobam of synergist compounds I-B, II-H, II-K and IV-C is further illustrated by the 24 hour mortality data of German male cockroaches (Blatella Germanicus) shown in Table XXXX. The synergists and insecticide were diluted in acetone and applied in small droplets to the thorax of the insect. These doses of synergist alone gave zero percent insect mortality.
The synergistic effect with GS 13005 of compounds I-B, II-H, II-K, II-P, II-Q, II-R and IV-C is illustrated by the 24 hour mortality of German male cockroaches shown in Table XXXXI. These doses of synergist alone caused zero percent insect mortality.

| Compound | percent kill (houseflies) [%] | number of mice dead (mice) | insect mortality, synergist alone ([1]; synergist alone at doses of Table XXXX) | insect mortality, synergist alone ([1]; synergist alone at doses of Table XXXXI) |
| --- | --- | --- | --- | --- |
| C#CCON=C(C)c1ccc(Cl)cc1 [I-D] | 100 | – | – | – |
| C#CCON=Cc1ccc(Cl)cc1Cl [I-G] | 90 | – | – | – |
| C#CCOCc1ccc(Cl)c(Cl)c1Cl [II-D] | – | 0 | – | – |
| C#CCOCc1c(Cl)cccc1[N+](=O)[O-] [II-K] | – | 1 | zero | zero |
